Reference: patent publication US20080300298A1, “Honokiol Derivates For the Treatment of Proliferative Disorders” (priority 2005, published 2008)

How the values were obtained:
HUVEC = assay: direct toxicity against HUVEC (colorimetric assay); format: cell-based, human; details: 8 ug/ml
[1] = system: MCF-7 and MDA-MB-231 breast cancer cell lines; assay: MTT assay of drug combinations (additive model); format: cell-based
Experimental: 3-(4,5-dimethylthiazol-2-yl)-2,5-diphenyltetrazolium bromide (MTT) proliferation assays: 3×10^3 cells/well were plated in 96-well plates, cultured in the appropriate culture media containing 10% FCS, and treated with either control vehicle or various concentrations of HNK, alone or with a secondary drug, as indicated. All secondary drugs were freshly diluted in growth media and immediately added to cells along with the HNK. After 24 hours of incubation at 37° C., 5% CO2, the cells were cultured for four hours with 10% MTT reagent (5 mg/ml; Sigma-Aldrich, St. Louis, Mo.). The medium was aspirated, and the cells were dissolved by dimethyl sulfoxide (DMSO). Absorbance of the formazan product was measured by an enzyme-linked immunosorbent assay reader (Macintosh).
Model for drug interactions in vitro: The analysis of interaction between two drugs was conducted using the additive model (Xu D., et al. Cancer Lett. 2006 Jan. 7; [Electronic publication; ahead of print]; Sutherland, R. L., et al. Cancer Res. 1983 September; 43(9):3998-4006). The model predicts the effect of a combination to be equal to the product of the effect of its constituents. […] A ratio between the observed and the predicted viability by the additive model was calculated for all combinations. […]

Structure (SMILES): C=CCc1ccc(O)c(-c2ccc(O)c(CC=C)c2)c1 [HNK, Honokiol]
- viability of HUVEC cells (HUVEC): did not affect the viability of HUVEC cells
- interaction of HNK and SAHA (additive model) ([1]; HNK 10-50 μM with SAHA 2 μM, 24 hours): synergistic effect
- interaction of HNK and the other drugs tested (additive model) ([1]; with paclitaxel 250 nM, doxorubicin 300 nM, 4-HT 100 nM): Additive effect
